Measured values published in the supplement of paper PMC12533247.
± gives the standard deviation of the averaged measurements.

System: HSV-1 K26-GFP infected primary human skin cells
Assay: % change of HSV-1 GFP signal vs untreated infected cells; higher = less antiviral inhibition
Protocol: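 2D primary donor-derived keratinocytes (read at 20 hpi) and donor-matched dermal fibroblasts (read at 48 hpi) infected with GFP-HSV-1 K26 at MOI 1 and treated 1 h later with compound dilutions. IncuCyte GFP integrated intensity is normalised by subtracting mock-infected wells and dividing by untreated infected wells, shown as % change (-100 = full inhibition).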

Cc1cccc(C)c1N(CC(=O)Nc1ccc(-c2ncon2)cc1)C(=O)C1CCS(=O)(=O)CC1 [Amenamevir]
% change of HSV-1 GFP signal [%]
Conditions | 0.001 µM | 0.003 µM | 0.0091 µM | 0.0274 µM | 0.0823 µM | 0.2469 µM | 0.7407 µM | 2.2222 µM | 6.6667 µM | 20 µM
cell type: primary dermal fibroblasts, donor: 5, time (h post infection): 48 | -4.89 ± 1.9 | -8.89 ± 6.9 | -13.3 ± 9.5 | -23.6 ± 18 | -42.3 ± 19 | -59.7 ± 17 | -74.9 ± 10 | -91.3 ± 2.1 | -98.98 ± 0.42 | -99.775 ± 0.029
cell type: primary keratinocytes, donor: 3, time (h post infection): 20 | 13.9 ± 7.1 | 12.5 ± 10 | 4.38 ± 14 | 0.743 ± 7.2 | -11.4 ± 19 | -38.9 ± 22 | -51.9 ± 7.8 | -68 ± 7.9 | -78.6 ± 13 | -83.4 ± 12
cell type: primary keratinocytes, donor: 4, time (h post infection): 20 | -3.16 ± 10 | -0.75 ± 3.6 | -11.8 ± 1.4 | -15.3 ± 5.3 | -42.6 ± 9 | -80.2 ± 16 | -87.1 ± 12 | -93.7 ± 7.1 | -95.2 ± 3.2 | -99.17 ± 0.71
cell type: primary keratinocytes, donor: 5, time (h post infection): 20 | 1.08 ± 1.5 | 2.94 ± 3 | -1.03 ± 1.6 | -12.8 ± 8.2 | -31.3 ± 16 | -49.2 ± 18 | -67.5 ± 19 | -93.4 ± 2.6 | -97.9 ± 2.3 | -99.54 ± 0.58

COc1ccc(-c2nc(N3CCOCC3)c3sc(CN(C)c4ncc(C(=O)NO)cn4)cc3n2)cn1 [Fimepinostat]
% change of HSV-1 GFP signal [%]
Conditions | 0.003 µM | 0.0091 µM | 0.0274 µM | 0.0823 µM | 0.2469 µM | 0.7407 µM | 2.2222 µM | 6.6667 µM | 20 µM | 60 µM
cell type: primary dermal fibroblasts, donor: 5, time (h post infection): 48 | -12.8 ± 4.4 | -13.7 ± 5.4 | -14.2 ± 5.5 | -12.3 ± 3.9 | -12 ± 6.5 | -18.4 ± 12 | -25.6 ± 15 | -32.6 ± 16 | -34.1 ± 16 | -28.4 ± 16
cell type: primary keratinocytes, donor: 3, time (h post infection): 20 | 6.27 ± 19 | -3.11 ± 18 | 2.91 ± 18 | 1.02 ± 22 | -16.3 ± 15 | -33.2 ± 14 | -41.3 ± 12 | -43 ± 15 | -64.7 ± 12 | -48.6 ± 7.7
cell type: primary keratinocytes, donor: 4, time (h post infection): 20 | -14.2 ± 39 | -25.2 ± 46 | -17.4 ± 42 | -25 ± 40 | -33 ± 54 | -64.8 ± 23 | -69.2 ± 17 | -76.4 ± 15 | -89.2 ± 12 | -72.7 ± 16
cell type: primary keratinocytes, donor: 5, time (h post infection): 20 | -6.73 ± 19 | -26.4 ± 10 | -15.1 ± 12 | -24.8 ± 16 | -44.7 ± 4.9 | -48 ± 9.1 | -58.2 ± 2.6 | -64.6 ± 2.8 | -70.5 ± 3.6 | -57.8 ± 5.4

Nc1ccn([C@@H]2O[C@H](CO)[C@@H](O)C2(F)F)c(=O)n1 [Gemcitabine]
% change of HSV-1 GFP signal [%]
Conditions | 0.001 µM | 0.003 µM | 0.0091 µM | 0.0274 µM | 0.0823 µM | 0.2469 µM | 0.7407 µM | 2.2222 µM | 6.6667 µM | 20 µM
cell type: primary dermal fibroblasts, donor: 5, time (h post infection): 48 | -5.06 ± 4.5 | -5.8 ± 3.2 | -2.35 ± 5 | -8.4 ± 7.1 | -70.4 ± 27 | -97.2 ± 4.5 | -99.78 ± 0.21 | -99.91 ± 0.1 | -99.93 ± 0.13 | -99.87 ± 0.17
cell type: primary keratinocytes, donor: 3, time (h post infection): 20 | 29.8 ± 18 | 37.4 ± 15 | 36.1 ± 14 | 17.1 ± 24 | -25.6 ± 14 | -75.6 ± 6 | -97.4 ± 1.2 | -98.37 ± 0.85 | -99 ± 0.63 | -99.06 ± 0.49
cell type: primary keratinocytes, donor: 4, time (h post infection): 20 | 9.34 ± 20 | 0.292 ± 4.1 | 4.89 ± 21 | -17.4 ± 47 | -50.7 ± 10 | -86.4 ± 2 | -97.6 ± 2.8 | -99.732 ± 0.00042 | -99.606 ± 0.023 | -99.72 ± 0.28
cell type: primary keratinocytes, donor: 5, time (h post infection): 20 | 6.72 ± 4.2 | 7.7 ± 7.3 | 7.12 ± 7.6 | 9.71 ± 6.2 | -23 ± 33 | -73.3 ± 20 | -94.7 ± 6.4 | -99 ± 1.2 | -99.39 ± 0.77 | -99.6 ± 0.34

CC(C)c1cnn2c(NCc3ccccc3-n3cccn3)nc(OC3CCCNC3)nc12 (centres undefined) [LDC4297]
% change of HSV-1 GFP signal [%]
Conditions | 0.003 µM | 0.0091 µM | 0.0274 µM | 0.0823 µM | 0.2469 µM | 0.7407 µM | 2.2222 µM | 6.6667 µM | 20 µM | 60 µM
cell type: primary dermal fibroblasts, donor: 5, time (h post infection): 48 | -4.88 ± 5.9 | -5.58 ± 6.5 | -6.29 ± 5.6 | -17.5 ± 3.9 | -44.9 ± 2.6 | -60.2 ± 3.7 | -78.8 ± 1.5 | -97.65 ± 0.27 | -99.964 ± 0.014 | -99.913 ± 0.048
cell type: primary keratinocytes, donor: 3, time (h post infection): 20 | -0.466 ± 8.6 | 9.74 ± 14 | -1.73 ± 7.8 | 2.24 ± 7.3 | -13.6 ± 7.7 | -24.8 ± 10 | -42.6 ± 3.3 | -99.02 ± 0.68 | -99.87 ± 0.066 | -99.984 ± 0.018
cell type: primary keratinocytes, donor: 4, time (h post infection): 20 | -19.1 ± 46 | -22.2 ± 36 | -23.4 ± 42 | -17.1 ± 29 | -35.8 ± 24 | -61 ± 17 | -75.3 ± 1.8 | -99.7 ± 0.3 | -99.973 ± 0.043 | -100.04 ± 0.031
cell type: primary keratinocytes, donor: 5, time (h post infection): 20 | – | 7.64 ± 7.6 | 1.09 ± 8 | 0.186 ± 7.5 | -10 ± 20 | -17.4 ± 34 | -37.8 ± 28 | -99.64 ± 0.23 | -99.946 ± 0.0037 | -99.969 ± 0.017

CC(=O)O[C@H]1C[C@H](O[C@H]2[C@@H](O)C[C@H](O[C@H]3[C@@H](O)C[C@H](O[C@H]4CC[C@@]5(C)[C@H](CC[C@@H]6[C@@H]5C[C@@H](O)[C@]5(C)[C@@H](C7=CC(=O)OC7)CC[C@]65O)C4)O[C@@H]3C)O[C@@H]2C)O[C@H](C)[C@H]1O[C@@H]1O[C@H](CO)[C@@H](O)[C@H](O)[C@H]1O [Lanatoside C]
% change of HSV-1 GFP signal [%]
Conditions | 0.001 µM | 0.003 µM | 0.0091 µM | 0.0274 µM | 0.0823 µM | 0.2469 µM | 0.7407 µM | 2.2222 µM | 6.6667 µM | 20 µM
cell type: primary dermal fibroblasts, donor: 5, time (h post infection): 48 | -2.98 ± 6 | -9.39 ± 4.2 | -4.44 ± 0.84 | -5.88 ± 4.3 | -21.6 ± 7.3 | -99.19 ± 0.55 | -99.81 ± 0.14 | -99.972 ± 0.078 | -99.993 ± 0.071 | -99.985 ± 0.012
cell type: primary keratinocytes, donor: 3, time (h post infection): 20 | 4.49 ± 14 | 6.12 ± 15 | -2.17 ± 7.1 | 7.86 ± 14 | -16.9 ± 37 | -96 ± 4.3 | -99.91 ± 0.12 | -99.948 ± 0.099 | -99.8 ± 0.23 | -99.941 ± 0.084
cell type: primary keratinocytes, donor: 4, time (h post infection): 20 | -0.192 ± 8.9 | -0.172 ± 1.1 | -18.5 ± 14 | -9.65 ± 0.19 | -38.4 ± 17 | -79.3 ± 23 | -100.1 ± 0.17 | -100.1 ± 0.18 | -100.1 ± 0.21 | -100.07 ± 0.081
cell type: primary keratinocytes, donor: 5, time (h post infection): 20 | 12.3 ± 7.9 | 12.4 ± 0.27 | 10 ± 4 | -3.35 ± 5.9 | -66 ± 14 | -99.66 ± 0.15 | -99.948 ± 0.052 | -99.893 ± 0.07 | -99.85 ± 0.12 | -99.904 ± 0.018
